Several values for one entry are separate records, joined by “and”; a condition that tells them apart may be missing. Identical values can stand only once.
Experiments:
HSV-1 [1] = assay: Virucidal activity, CPE inhibition assay (HSV-1 pretreated with compounds); assay type: cell-based, HSV-1 strain L2; conditions: CPE assay; for virucidal activity against HSV-1 (in words): virus pretreated with compound
Procedure: The antiviral activity of polyphenols from M. amurensis against HSV-1 was assessed using the cytopathic effect inhibition (CPE) assay. To study the inhibitory effect of polyphenolic compounds directly on the HSV-1 virus (direct virucidal activity), the monolayer of Vero cells grown on 96-well plates (1 × 10^4 cells/well) was infected with the virus (100 TCD50/mL), pretreated with different concentrations of polyphenolic compounds.
(§1) The HSV-1 strain L2 obtained from N.F. Gamaleya Federal Research Centre for Epidemiology and Microbiology (Moscow, Russia) was grown in Vero cells as previously described.
(§2) We determined the direct inhibitory effect of polyphenolic compounds from M. amurensis heartwood on HSV-1 (virucidal effect). We mixed the virus at an infectious dose (100 TCID50/mL) with polyphenolic compounds (from 0.1 to 100 µg/mL) at a ratio of 1:1 (v/v) and incubated for an hour at 37 °C. Then, we infected the monolayer of Vero cells grown on 96-well plates (1 × 10^4 cells/well) with HSV-1 pretreated with the studied compounds. After 1 h adsorption at 37 °C, the cells were washed with phosphate-buffered saline (PBS) and overlaid by the maintenance medium with 1% FBS. The plates were incubated for 72 h at 37 °C in a CO2-incubator. The cytopathic effect (CPE) inhibition assay and real-time reverse transcription-PCR (RT-PCR) assay were used to evaluate virucidal effect of the tested compounds.
We previously described this method in detail in [22]. We performed the MTT assay to evaluate the antiviral activity of polyphenolic compounds. The viral inhibition rate (IR, %) was calculated according to Equation (1):(1) IR, %=Atv−Acv/Acd−Acv×100, where Atv is the absorbance of cells infected with HSV-1 pretreated with the studied compounds,
We calculated the selectivity index (SI) as the ratio of CC50 to IC50. Experiments were repeated three times.

[2] = tested on: 6-OHDA-treated Neuro-2a cells; assay: 6-OHDA-induced neurotoxicity model, cell viability test (MTT); assay type: cell-based, murine; conditions: 6-OHDA 100 µM
Procedure: Neuro-2a cells were incubated with the studied polyphenolic compounds for 1 h. Then, 100 µM of 6-hydroxydopamine 6-OHDA were added. We determined the percentage of living Neuro-2a cells after treatment with 6-OHDA (Figure 4a–d).
Figure 4 The effect of polyphenolic compounds isolated from M. amurensis heartwood on the viability of Neuro-2a cells treated with 6-OHDA (100 μM) (a–d). The viability of Neuro-2a cells treated with various compounds and 6-OHDA was measured by the MTT assay. Polyphenolic compounds isolated from M. amurensis heartwood were used at concentrations 10, 1, 0.1 μM. The data are presented as means ± SEM of three independent replicates. (*) indicate p < 0.05 versus 6-OHDA-treated cells.
After 24 h of adhesion, Neuro-2a cells (5 × 10^4 cells/mL) were treated with polyphenolic compounds at concentrations of 0.1, 1 and 10 μM for 1 h. Then, 100 µM of 6-OHDA or 1 mM of PQ (Sigma-Aldrich, St. Louis, MO, USA) were added. Cells incubated without inductors or with inductors were used as positive and negative control, respectively. Cell viability was measured after 24 h using the MTT assay.

HSV-1 [3] = assay: Virucidal activity, RT-PCR assay (HSV-1 pretreated with compounds); assay type: cell-based, HSV-1 strain L2; conditions: for virucidal activity against HSV-1 by RT-PCR (in words): 0.1, 1 and 10 µg/mL; for Ct: 72 h; for −ΔCt: vs virus control
Procedure: Vero cells grown on 96-well plates were infected with the virus (100 TCID50/mL), pretreated with polyphenolic compounds at concentrations 0.1, 1 and 10 μg/mL. After 72 h of cell incubation, viral DNA was extracted from the supernatants, and the relative level of HSV-1 DNA was determined using RT-PCR. The effect of polyphenols on the relative level of viral DNA was assessed using the 2^−∆Ct method and reported as fold reduction compared to virus control.
as §1, §2
We performed the RT-PCR assay as we previously described in detail in [22]. Briefly, HSV-1 DNA was extracted after incubation from cell supernatants by using the DNA-sorb-AM (K1-12-100-CE) nucleic acid extraction kit (AmpliSens®, Moscow, Russia) according to the manufacturer′s instructions. We treated the supernatants with a lysis solution that contained guanidine chloride (chaotropic agent) in the presence of sorbent (silica particles). As the elution solution was added, the DNA was […] silica particles and separated from the sorbent particles by centrifugation.
We detected the DNA of HSV-1 in the obtained samples using the AmpliSens® HSV I, II-FRT-100F PCR kit (AmpliSens®, Moscow, Russia) on a real-time PCR instrument Rotor-Gene Q (Qiagen, Hilden, Nordrhein-Westfalen, Germany) according to the manufacturer′s instructions. The PCR reaction conditions were the following: initial denaturation at 95 °C for 15 min; then 5 cycles at 95 °C for 5 s, at 60 °C for 20 s, at 72 °C for 15 s; then 40 cycles at 95 °C for 5 s, at 60 °C for 20 s, and at 72 °C for 15 s. A negative sample was used as the amplification control for each run. The threshold cycle number Ct, was measured as the PCR cycle, where the amount of the amplified target reached the threshold value; the Ct values ≥ 37 indicated the absence of the HSV-1 DNA in the samples. We assessed the anti-HSV-1 activity of the studied compounds by the reduction in the viral DNA levels using the 2^−ΔCt method according to Equation (2):(2) ΔCt=Ctcv−Cttv where Ct is the threshold cycle number measured as the PCR cycle, where the amount of the amplified target reached the threshold value, […]

[4] = Human alphaherpesvirus 1, 72 h, read-out: 2^−ΔCt
[5] = Human alphaherpesvirus 1, 72 h, read-out: log10

SMILES | virucidal activity against HSV-1 (in words) (HSV-1 [1]) | effect on viability of 6-OHDA-treated Neuro-2a cells (in words) ([2]; compound 1 µM) | virucidal activity against HSV-1 by RT-PCR (in words) (HSV-1 [3]) | IC50 (HSV-1 [1]; Human alphaherpesvirus 1, virus pretreated with compound (virucidal), Vero cells, 100 TCID50/mL) | Ct (HSV-1 [3]; 0.1 µg/mL) | −ΔCt (HSV-1 [3]; 0.1 µg/mL) | Ct (HSV-1 [3]; 1 µg/mL) | −ΔCt (HSV-1 [3]; 1 µg/mL) | anti-HSV-1 activity by RT-PCR (in words) (HSV-1 [3]; 10 µg/mL) | Ct (HSV-1 [3]; 10 µg/mL) | −ΔCt (HSV-1 [3]; 10 µg/mL) | activity at 0.1 µg/mL (HSV-1 [3]; [4]) | activity at 1 µg/mL (HSV-1 [3]; [4]) | activity at 10 µg/mL (HSV-1 [3]; [4]) | log reduction at 0.1 µg/mL (HSV-1 [3]; [5]) | log reduction at 1 µg/mL (HSV-1 [3]; [5]) | log reduction at 10 µg/mL (HSV-1 [3]; [5]) | effect on viability of 6-OHDA-treated Neuro-2a cells (in words) ([2]; compounds at 10, 1, 0.1 µM)
COc1ccc(C2(O)COc3cc(O)ccc3C2=O)c(O)c1 (racemic) [Compound 12, (±)-3-hydroxyvestitone] | did not show virucidal activity | increased the viability | did not demonstrate virucidal activity |  |  |  |  |  |  |  |  |  |  |  |  |  |  | 
O=c1c(-c2ccc(O)cc2)coc2cc(O)cc(O)c12 [Compound 2, genistein] |  |  |  | 16.7 µg/mL and 61.9 µM | 18.1 ± 2.2 | 0 | 18.4 ± 2.4 | −0.30 ± 0.03 | moderate anti-HSV-1 activity | 22.4 ± 2.4 | −4.3 ± 0.5 | 100% | 81.2 ± 11% | 5.08 ± 0.61% | 0 | 0.09 ± 0.01 | 1.3 ± 0.2 | 
COc1c(O)cc2occ(-c3ccc(O)cc3)c(=O)c2c1O [Compound 5, tectorigenin] | did not show virucidal activity |  | did not demonstrate virucidal activity |  |  |  |  |  |  |  |  |  |  |  |  |  |  | weak effect on cell viability
